According to patent publication US20240317735A1, “HYDROISOQUINOLINE OR HYDRONAPHTHYRIDINE COMPOUNDS FOR THE TREATMENT OF AUTOIMMUNE DISEASE” (Hoffmann-La Roche Inc., priority 2020, published 2024):

Molecular target: T1, human TLR7 (Homo sapiens, UniProt Q9NYK1)
T1 construct: host or cells: HEK293 (HEK-Blue hTLR7)
T1 sequence (Q9NYK1 27-1049): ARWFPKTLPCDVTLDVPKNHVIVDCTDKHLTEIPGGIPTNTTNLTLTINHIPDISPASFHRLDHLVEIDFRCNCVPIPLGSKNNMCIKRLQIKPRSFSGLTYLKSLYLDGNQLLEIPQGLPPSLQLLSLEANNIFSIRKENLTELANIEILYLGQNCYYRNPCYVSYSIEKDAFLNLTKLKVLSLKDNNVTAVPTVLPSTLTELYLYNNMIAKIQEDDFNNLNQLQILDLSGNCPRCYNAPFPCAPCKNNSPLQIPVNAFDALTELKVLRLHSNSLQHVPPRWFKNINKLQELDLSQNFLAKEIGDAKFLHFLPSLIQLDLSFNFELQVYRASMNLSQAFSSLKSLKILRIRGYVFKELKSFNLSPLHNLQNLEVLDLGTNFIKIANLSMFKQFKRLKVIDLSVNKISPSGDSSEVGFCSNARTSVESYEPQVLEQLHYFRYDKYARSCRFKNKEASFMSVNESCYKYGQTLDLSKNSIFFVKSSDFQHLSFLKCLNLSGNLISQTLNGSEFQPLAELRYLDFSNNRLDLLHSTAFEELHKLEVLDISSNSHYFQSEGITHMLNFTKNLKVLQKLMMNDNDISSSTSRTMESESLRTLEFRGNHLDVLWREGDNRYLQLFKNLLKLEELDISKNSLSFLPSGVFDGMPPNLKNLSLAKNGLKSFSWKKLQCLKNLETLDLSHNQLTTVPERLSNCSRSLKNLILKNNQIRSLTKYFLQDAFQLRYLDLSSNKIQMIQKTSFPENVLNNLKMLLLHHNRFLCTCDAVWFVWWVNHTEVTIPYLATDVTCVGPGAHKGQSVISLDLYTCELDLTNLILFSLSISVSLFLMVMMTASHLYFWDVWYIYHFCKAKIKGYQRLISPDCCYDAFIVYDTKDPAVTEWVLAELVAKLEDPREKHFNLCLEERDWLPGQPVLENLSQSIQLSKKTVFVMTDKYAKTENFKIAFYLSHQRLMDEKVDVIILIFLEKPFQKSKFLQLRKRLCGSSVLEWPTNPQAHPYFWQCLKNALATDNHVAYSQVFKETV
Assay: HEK293-Blue-hTLR-7 cells assay (SEAP reporter, R848 stimulation)
Format: cell-based
Settings: HEK293-Blue-hTLR7 cells, R848, 20 hrs; read-out: HEK/hTLR7 IC50
Procedure: The following tests were carried out in order to determine the activity of the compounds of formula (I) and (Ia) in HEK293-Blue-hTLR-7/8/9 cells assay.
A stable HEK293-Blue-hTLR-7 cell line was purchased from InvivoGen (Cat. #: hkb-htlr7, San Diego, California, USA). These cells were originally designed for studying the stimulation of human TLR7 by monitoring the activation of NF-κB. A SEAP (secreted embryonic alkaline phosphatase) reporter gene was placed under the control of the IFN-β minimal promoter fused to five NF-κB and AP-1-binding sites. The SEAP was induced by activating NF-κB and AP-1 via stimulating HEK-Blue hTLR7 cells with TLR7 ligands. Therefore the reporter expression w % as declined by TLR7 antagonist under the stimulation of a ligand, such as R848 (Resiquimod), for incubation of 20 hrs. The cell culture supernatant SEAP reporter activity was determined using QUANTI-Blue™ kit (Cat. #: rep-qb1, Invivogen, San Diego, Ca, USA) at a wavelength of 640 nm, a detection medium that turns purple or blue in the presence of alkaline phosphatase.
HEK293-Blue-hTLR7 cells were incubated at a density of 250,000˜450,000 cells/mL in a volume of 170 μL in a 96-well plate in Dulbecco's Modified Eagle's medium (DMEM) containing 4.5 g/L glucose, 50 U/mL penicillin, […], […] Normocin, 2 mM L-glutamine, 10% (v/v) heat-inactivated fetal bovine serum with addition of 20 μL test compound in a serial dilution in the presence of final DMSO at 1% and 10 μL of 20 uM R848 in above DMEM, perform incubation under 37° C. in a C02 incubator for 20 hrs. Then 20 μL of the supernatant from each well was incubated with 180 μL Quanti-blue substrate solution at 37° C. for 2 hrs and the absorbance was read at 620˜655 nm using a spectrophotometer. The signaling pathway that TLR7 activation leads to downstream NF-κB activation has been widely accepted, and therefore similar reporter assay was modified for evaluating TLR7 antagonist.

| IC50 [nM] | SMILES |
| --- | --- |
| 30 | Cc1cc(N2Cc3ccc(N4C[C@@H](F)[C@@H](N)C4)nc3[C@@H](C)C2)c2cnn(C)c2n1 [Example 69, (3S,4R)-4-fluoro-1-[(8S)-6-(1,6-dimethylpyrazolo[3,4-b]pyridin-4-yl)-8-methyl-7,8-dihydro-5H-1,6-naphthyridin-2-yl]pyrrolidin-3-amine] |
| 13 | Cc1cc(N2Cc3ccc(N4C[C@@H](N)[C@H](O)C4)cc3[C@@H](C)C2)c2cnn(C)c2n1 [Example 47, trans-4-amino-1-[(4R)-2-(1,6-dimethylpyrazolo[3,4-b]pyridin-4-yl)-4-methyl-3,4-dihydro-1H-isoquinolin-6-yl]pyrrolidin-3-ol] |
| 3 | C[C@H]1CN(c2ccnc3c2cnn3C)Cc2ccc(O[C@@H]3C[C@H]4CNCCN4C3)cc21 [Example 42, (4R)-4-methyl-2-(1-methylpyrazolo[3,4-b]pyridin-4-yl)-6-[[(7R,8aS)-1,2,3,4,6,7,8,8a-octahydropyrrolo[1,2-a]pyrazin-7-yl]oxy]-3,4-dihydro-1H-isoquinoline] |
| 6 | CO[C@H]1CN(c2ccc3c(n2)[C@@H](C)CN(c2cc(C)nc4c2cnn4C)C3)CC[C@@H]1N [Example 65, (3S,4S)-3-methoxy-1-[(8S)-6-(1,6-dimethylpyrazolo[3,4-b]pyridin-4-yl)-8-methyl-7,8-dihydro-5H-1,6-naphthyridin-2-yl]piperidin-4-amine] |
| 24 | C[C@H]1CN(c2ccnc3c2cnn3C)Cc2ccc(N3CC4(CCNC4)OC3=O)cc21 (stereo partly drawn) [Example 35, 3-[(4R)-4-methyl-2-(1-methylpyrazolo[3,4-b]pyridin-4-yl)-3,4-dihydro-1H-isoquinolin-6-yl]-1-oxa-3,7-diazaspiro[4.4]nonan-2-one] |
| 9 | C[C@H]1CN(c2ccnc3c2cnn3C)Cc2ccc(N3CCN[C@H](CO)C3)cc21 [Example 51, [(2S)-4-[(4R)-4-methyl-2-(1-methylpyrazolo[3,4-b]pyridin-4-yl)-3,4-dihydro-1H-isoquinolin-6-yl]piperazin-2-yl]methanol] |
| 26 | C[C@H]1CN(c2ccnc3c2cnn3C)Cc2ccc(N3CC4(CNC4)CC3=O)cc21 [Example 34, 6-[(4R)-4-methyl-2-(1-methylpyrazolo[3,4-b]pyridin-4-yl)-3,4-dihydro-1H-isoquinolin-6-yl]-2,6-diazaspiro[3.4]octan-7-one] |
| 13 | Cc1cc(N2Cc3ccc(N4CC5(CNCCO5)C4)cc3[C@@H](C)C2)c2cnn(C)c2n1 [Example 48, 2-[(4R)-2-(1,6-dimethylpyrazolo[3,4-b]pyridin-4-yl)-4-methyl-3,4-dihydro-1H-isoquinolin-6-yl]-5-oxa-2,8-diazaspiro[3.5]nonane] |
| 12 | C[C@H]1CN(c2ccnc3c2cnn3C)Cc2ccc(OC[C@@H]3CNCCN3C=O)cc21 [Example 45, (2S)-2-[[(4R)-4-methyl-2-(1-methylpyrazolo[3,4-b]pyridin-4-yl)-3,4-dihydro-1H-isoquinolin-6-yl]oxymethyl]piperazine-1-carbaldehyde] |
| 45 | CO[C@@H]1CN(c2cc3c(cn2)CN(c2cc(C)nc4c2cnn4C)C[C@@H]3C)C[C@H]1N [Example 78, (3R,4R)-4-methoxy-1-[(5R)-7-(1,6-dimethylpyrazolo[3,4-b]pyridin-4-yl)-5-methyl-6,8-dihydro-5H-2,7-naphthyridin-3-yl]pyrrolidin-3-amine] |

More lines, now with the values behind:

| SMILES | IC50 [nM] |
| --- | --- |
| C[C@H]1CN(c2ccnc3c2cnn3C)Cc2ccc(N3CCC(N4CC[C@@H](N)[C@H](O)C4)CC3)cc21 [Example 29, trans-4-amino-1-[1-[(4R)-4-methyl-2-(1-methylpyrazolo[3,4-b]pyridin-4-yl)-3,4-dihydro-1H-isoquinolin-6-yl]-4-piperidyl]piperidin-3-ol] | 9 |
| C[C@H]1CN(c2ccnc3c2cnn3C)Cc2ccc(N3CCC(O)(CN(C)C)CC3)cc21 [Example 13, 4-[(dimethylamino)methyl]-1-[(4R)-4-methyl-2-(1-methylpyrazolo[3,4-b]pyridin-4-yl)-3,4-dihydro-1H-isoquinolin-6-yl]piperidin-4-ol] | 7 |
| C[C@H]1CN(c2ccnc3c2cnn3C)Cc2ccc(N3CC4(CCNCC4)OC3=O)cc21 [Example 26, 3-[(4R)-4-methyl-2-(1-methylpyrazolo[3,4-b]pyridin-4-yl)-3,4-dihydro-1H-isoquinolin-6-yl]-1-oxa-3,8-diazaspiro[4.5]decan-2-one] | 7 |
| C[C@H]1CN(c2ccnc3c2cnn3C)Cc2ccc(N3CCN(C(=O)C4CNCCO4)CC3)cc21 (stereo partly drawn) [Example 12, morpholin-2-yl-[4-[(4R)-4-methyl-2-(1-methylpyrazolo[3,4-b]pyridin-4-yl)-3,4-dihydro-1H-isoquinolin-6-yl]piperazin-1-yl]methanone] | 9 |
| CC1CN(c2ccnc3c2cnn3C)Cc2ccc(N3CCC4(CCNCC4)CC3)cc21 (stereo not shown) [Example 4, 3-[4-methyl-2-(1-methylpyrazolo[3,4-b]pyridin-4-yl)-3,4-dihydro-1H-isoquinolin-6-yl]-3,9-diazaspiro[5.5]undecane] | 4 |
| Cn1ncc2c(N3CCc4cc(N5CCNCC5)ccc4C3)ccnc21 [Example 3, 2-(1-methylpyrazolo[3,4-b]pyridin-4-yl)-6-piperazin-1-yl-3,4-dihydro-1H-isoquinoline] | 19 |
| Cc1cc(N2Cc3ccc(OC[C@H]4CNCCN4)cc3[C@@H](C)C2)c2cnn(C)c2n1 [Example 30, (4R)-2-(1,6-dimethylpyrazolo[3,4-b]pyridin-4-yl)-4-methyl-6-[[(2R)-piperazin-2-yl]methoxy]-3,4-dihydro-1H-isoquinoline] | 37 |
| Cc1cc(N2Cc3ccc(N4CCC(O)(CN(C)C)CC4)cc3[C@@H](C)C2)c2cnn(C)c2n1 [Example 14, 4-[(dimethylamino)methyl]-1-[(4R)-2-(1,6-dimethylpyrazolo[3,4-b]pyridin-4-yl)-4-methyl-3,4-dihydro-1H-isoquinolin-6-yl]piperidin-4-ol] | 8 |
| CO[C@@H]1CN(C2CCN(c3ccc4c(c3)[C@@H](C)CN(c3ccnc5c3cnn5C)C4)CC2)C[C@H]1N [Example 11, (3R,4R)-4-methoxy-1-[1-[(4R)-4-methyl-2-(1-methylpyrazolo[3,4-b]pyridin-4-yl)-3,4-dihydro-1H-isoquinolin-6-yl]-4-piperidyl]pyrrolidin-3-amine] | 2 |
| Cn1ncc2c(N3Cc4ccc(N5CCC6(CCNCC6)CC5)cc4C(C)(C)C3)ccnc21 [Example 6, 3-[4,4-dimethyl-2-(1-methylpyrazolo[3,4-b]pyridin-4-yl)-1,3-dihydroisoquinolin-6-yl]-3,9-diazaspiro[5.5]undecane] | 26 |
| CO[C@@H]1CN(c2ccc3c(c2)[C@@H](C)CN(c2cc(C)nc4c2cnn4C)C3)C[C@H]1N [Example 23, (3R,4R)-4-methoxy-1-[(4R)-2-(1,6-dimethylpyrazolo[3,4-b]pyridin-4-yl)-4-methyl-3,4-dihydro-1H-isoquinolin-6-yl]pyrrolidin-3-amine] | 5 |
| C[C@H]1CN(c2ccnc3c2cnn3C)Cc2ccc(OC[C@H]3CNCCN3)cc21 [Example 18, (4R)-4-methyl-2-(1-methylpyrazolo[3,4-b]pyridin-4-yl)-6-[[(2R)-piperazin-2-yl]methoxy]-3,4-dihydro-1H-isoquinoline] | 8 |
